The results in this text go back to patent publication US10774039B2, “Cyclopropene amino acids and methods” (United Kingdom Research and Innovation, priority 2014, dated 2020).

Assay [1] concerns PylRS/tRNACUA pair. The assay is described as follows: Site-specific incorporation into sfGFP150TAG expressed in E. coli. It counts as cell-based, Methanosarcina barkeri. Particulars: SfGFP gene with amber codon at position 150, E. coli, PylRS/tRNACUA pair. The method, then:
FIG. 2A: The PylRS/RNACUA pair directs efficient, site-specific incorporation of 3 into sfGFP bearing an amber stop codon at position 150.
Expression and purification of sfGFP-3 from E. coli Electrocompetent E. coli DH10B cells were co-transformed with pBK-MbPylRS and psfGFP150TAG PyIT^14, 26. Transformed cells were recovered in S.O.B. (1 mL, supplemented with 0.2% glucose) for 1 h at 37° C. and used to inoculate LB containing 50 μg/mL kanamycin and 25 μg/mL tetracycline (LB-KT). The cells were incubated with shaking overnight at 37° C., 250 r.p.m. 1 mL of overnight culture was used to inoculate 100 mL of LB-KT½, the day culture was then incubated (37° C., 250 r.p.m). At O.D.600˜0.3, the culture was divided equally and supplemented with either 3 (1 mM) or H2O (500 μL) and incubated further (37° C., 250 r.p.m). At O.D.600˜0.6 protein expression was induced by the addition of arabinose (0.2%), after 4 h, the cells were harvested by centrifugation (4000 r.p.m, 20 min) and the pellet frozen until further use.
The frozen bacterial pellet was thawed on ice and resuspended in 2.5 mL lysis buffer (Bugbuster®, Novagen®, 50 μg/mL DNAse 1, Roche inhibitor cocktail and 20 mM imidazole). Cells were incubated (4° C., 30 minutes) then clarified by centrifugation (16000 g, 4° C., 30 minutes). The clarified lysates were transferred to fresh tubes and 100 μL Ni-NTA slurry added. The mixtures was incubated with agitation (4° C., 1 h) and then collected by centrifugation (1000 g, 4° C., 5 min). The beads were resuspended three times in 500 μL wash buffer (10 mM Tris-HCL, 40 mM imidazole, 200 mM NaCl, pH 8) and collected by centrifugation (1000 g, 4° C., 5 min). Finally, the beads were resuspended in 100 μL, elution buffer (10 mM Tris-HCL, 300 mM imidazole, 200 mM NaCl, pH 8), pelleted by centrifugation (1000 g, 4° C., 5 min) and the supernatant collected into fresh tubes. The elution was repeated three times with 100 μL of elution buffer. The purified proteins were analysed by 4-12% SDS-PAGE and LC-MS.

Assay [2] concerns the target PylRS/tRNACUA pair (Methanosarcina mazei, UniProt Q8PWY1). The assay is described as follows: Dual luciferase reporter assay on ovary extract of flies fed amino acid. Particulars: flies fed 10 mM amino acid. It counts as in vivo, D. melanogaster. Details: expressed in transfected cells; host or cells: transgenic Drosophila melanogaster, ovaries (UAS-PylRS driven by nos-vp16-GAL4). On the procedure:
Dual luciferase assay on ovary extract from 10 female flies expressing Triple-Rep-L in the presence or absence of 10 mM 1 or 10 mM 3. […] The error bars represent the standard deviation of 3 technical replicates from a single biological replicate. FIG. 10B: Site-specific incorporation of 3 (or 1) into GFP_TAG_mCherry-HA in flies expressing PylRS/PyltRNACUA. The full-length protein resulting from unnatural amino acid incorporation is detected by anti-HA western blot. FIG. 10C: Specific labelling of encoded 3 with tetrazine probes. Flies were fed with no amino acid, amino acid 1 (500 flies) or amino acid 3 (100 flies). […] The full-length protein containing the unnatural amino acid was immunoprecipitated from lysed ovaries with anti-GFP beads. The beads were labelled (4g, 4 μM, 200 μL, PBS, RT, 2 h) washed.
Transgenic lines were created by P element insertion using a Drosophila embryo injection service (BestGene Inc.). Lines were generated using the following plasmids: pFT58 (Ala), pFT60 (Ser), pFT62 (Leu) and pFT63 (Met). nos-Gal4-VP16 (Bloomington 4937) and MS1096-Gal4 (Bloomington 8860) were used as Gal4 drivers. All flies were grown at 25° C. on standard Iberian medium. Flies were fed unnatural amino acids by mixing dried yeast with the appropriate concentration of amino acid (usually 10 mM) diluted in dH2O to make a paste. Ovaries were prepared from females that were grown on Iberian fly food supplemented with a yeast paste with or without the amino acid for a minimum of 48 hours. For proteome labelling experiments transgenic male flies of constructs FT58, FT60, FT62 and FT63 were crossed with nos-vp16-GAL4 virgins to generate FT58/nos-vp16-GAL4, FT60/nos-vp16-GAL4, FT62/nos-vp16-GAL4 and FT63/nos-vp16-GAL4 respectively.
Ovaries from 10 females of Triple Rep-L flies recombined with nos-Gal4-VP16 fed 3, 1 or no amino acid were dissected in 100 μl 1× Passive lysis buffer and processed for luciferase assays as previously described^20.
Background: Reporter assays use an easily measured gene product as a stand-in for the process of interest.

The structures appear in SMILES notation.

Sequence of PylRS/tRNACUA pair (Methanosarcina mazei, UniProt Q8PWY1) (Q8PWY1 whole entry, the tested form may be a part): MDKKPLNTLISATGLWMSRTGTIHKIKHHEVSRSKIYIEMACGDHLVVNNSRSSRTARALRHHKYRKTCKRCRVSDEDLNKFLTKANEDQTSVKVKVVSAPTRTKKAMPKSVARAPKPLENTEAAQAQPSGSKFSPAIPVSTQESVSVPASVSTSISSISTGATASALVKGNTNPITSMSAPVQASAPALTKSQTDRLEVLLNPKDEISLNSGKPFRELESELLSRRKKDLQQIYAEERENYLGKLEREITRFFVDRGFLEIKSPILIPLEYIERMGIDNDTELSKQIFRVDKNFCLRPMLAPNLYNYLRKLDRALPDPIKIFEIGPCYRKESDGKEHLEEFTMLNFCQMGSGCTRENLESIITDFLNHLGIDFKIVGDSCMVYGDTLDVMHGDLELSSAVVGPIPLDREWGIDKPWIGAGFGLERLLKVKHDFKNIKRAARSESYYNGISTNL

`CC(C)(C)OC(=O)NCCCC[C@H](N)C(=O)O` [amino acid 1, N^ε-[(tert-butoxy)carbonyl]-L-lysine, reference compound]: the yield of protein in the assay with PylRS/tRNACUA pair [1] is given as 4 mg per litre of culture. Further, the “luciferase signal dependent on amino acid addition” value at PylRS/tRNACUA pair [2] is recorded as “strong luciferase signal”.
